Experimental data: PubChem BioAssay AID651782 (The Scripps Research Institute Molecular Screening Center, 2012)
Activity calls are given as the source filed them.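 How the source made its calls: active means IC50 of 10 µM or lower; inactive means IC50 above 10 µM.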

Molecular target: Nuclear receptor coactivator 2 (Homo sapiens) (UniProt Q15596)
Test: SRC2 (NCOA2) coactivator inhibitors, late-stage follow-up, selectivity assay for SRC3 inhibitor project, cell-based, HEK293, GAL4-SRC2 luciferase, powder samples (AID 651782)
Conditions: HEK293 GAL4-SRC2 luciferase reporter, luminescence

Chain of Nuclear receptor coactivator 2 (Homo sapiens) (Q15596 whole entry, looked up, the tested form may be a part): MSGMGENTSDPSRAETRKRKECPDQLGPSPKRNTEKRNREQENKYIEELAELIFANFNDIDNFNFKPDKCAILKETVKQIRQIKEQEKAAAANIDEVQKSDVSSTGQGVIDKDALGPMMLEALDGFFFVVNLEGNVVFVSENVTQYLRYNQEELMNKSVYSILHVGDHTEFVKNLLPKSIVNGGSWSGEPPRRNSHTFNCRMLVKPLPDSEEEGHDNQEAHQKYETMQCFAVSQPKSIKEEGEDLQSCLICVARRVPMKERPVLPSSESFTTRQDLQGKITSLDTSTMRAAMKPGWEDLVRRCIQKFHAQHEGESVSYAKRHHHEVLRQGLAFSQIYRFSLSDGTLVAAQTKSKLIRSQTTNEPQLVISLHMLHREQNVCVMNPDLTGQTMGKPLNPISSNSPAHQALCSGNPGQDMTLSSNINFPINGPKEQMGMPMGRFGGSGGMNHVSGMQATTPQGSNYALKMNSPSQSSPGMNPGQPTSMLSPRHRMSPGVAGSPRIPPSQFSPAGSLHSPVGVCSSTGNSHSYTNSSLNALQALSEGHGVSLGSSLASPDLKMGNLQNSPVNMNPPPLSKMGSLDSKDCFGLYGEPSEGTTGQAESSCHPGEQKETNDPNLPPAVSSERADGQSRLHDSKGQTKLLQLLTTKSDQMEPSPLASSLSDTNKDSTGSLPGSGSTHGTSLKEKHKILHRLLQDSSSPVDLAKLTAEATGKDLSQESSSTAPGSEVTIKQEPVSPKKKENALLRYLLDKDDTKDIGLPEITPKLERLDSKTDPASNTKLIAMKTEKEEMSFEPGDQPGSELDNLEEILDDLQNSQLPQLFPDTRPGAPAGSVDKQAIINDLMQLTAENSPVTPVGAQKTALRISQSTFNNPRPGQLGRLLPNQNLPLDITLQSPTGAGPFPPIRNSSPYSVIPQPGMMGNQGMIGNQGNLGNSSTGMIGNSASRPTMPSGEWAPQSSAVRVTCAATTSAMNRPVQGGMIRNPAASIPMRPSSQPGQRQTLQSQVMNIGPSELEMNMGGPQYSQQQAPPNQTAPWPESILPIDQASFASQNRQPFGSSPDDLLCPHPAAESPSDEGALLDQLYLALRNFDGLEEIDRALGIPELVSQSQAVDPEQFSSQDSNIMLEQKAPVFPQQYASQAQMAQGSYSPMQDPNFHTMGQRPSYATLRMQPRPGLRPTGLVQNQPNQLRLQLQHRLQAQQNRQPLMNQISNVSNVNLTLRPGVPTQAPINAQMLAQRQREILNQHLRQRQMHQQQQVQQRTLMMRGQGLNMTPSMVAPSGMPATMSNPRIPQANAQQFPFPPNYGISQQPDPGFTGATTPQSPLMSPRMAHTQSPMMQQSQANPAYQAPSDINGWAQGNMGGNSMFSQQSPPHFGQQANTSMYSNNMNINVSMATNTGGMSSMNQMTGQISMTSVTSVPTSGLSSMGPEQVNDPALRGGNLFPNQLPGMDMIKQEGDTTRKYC

Row | Compound | IC50
1 | O=C(COC(=O)c1ccc[nH]c1=O)Nc1ccc(N2CCCCC2)cc1 | > 35.9 µM (inactive)
2 | CCCNC(=O)c1nnsc1S(=O)(=O)c1ccc(Cl)cc1 | inactive
3 | CC(C)(C)c1ccc(-c2noc(CCC(=O)Nc3cccnc3)n2)cc1 | > 35.9 µM (inactive)
4 | OCCN1CCN(C(=S)c2ccc(-c3ccccc3)cc2)CC1 | 4.68 µM

Now from value to compound:

Row | IC50 | Compound
5 | > 35.9 µM (inactive) | CN1C(=O)C2(C(C#N)=C(N)N(c3cc(Cl)cc(Cl)c3)C3=C2C(=O)CCC3)c2ccccc21 (stereo not drawn)
6 | 5.4 µM | O=C(Nc1ccccc1Oc1ccccc1)c1cc([N+](=O)[O-])ccc1Cl
7 | inactive | Cc1ccc(OCC(=O)c2cc(C)n(-c3ccccc3)c2C)c([N+](=O)[O-])n1
8 | inactive | CN1C(=O)C2(C(C#N)=C(N)N(c3cc(Cl)cc(Cl)c3)C3=C2C(=O)CC(C)(C)C3)c2ccccc21 (stereo not drawn)
